According to ChEMBL document CHEMBL4024706 (Eur J Med Chem, 2017):

What was measured:
U-937 = assay: Growth inhibition of human U937 cells; assay type: functional; details: Homo sapiens, U-937
PBMC = assay: Cytotoxicity against PBMC (unknwon origin); assay type: cell-based
Pfeiffer = assay: Cell cycle arrest in human Pfeiffer cells assessed as increase in accumulation at G0/G1 phase after 48 hrs by propidium iodide/RNase staining based flow cytometric method; assay type: functional
[1] = AUC (0 to t) in Sprague-Dawley rat at 10 mg/kg, po by LC-MS/MS method; assay type: ADME, organism-based; details: in vivo
[2] = target: Atypical kinase COQ8A, mitochondrial (Homo sapiens) (UniProt Q8NI60); assay: Inhibition of wild-type human […] ADCK3 (M280 to Q647 residues) expressed in bacterial expression system assessed as residual activity at 1 uM by Kinomescan method relative to control
[3] = system: ALK tyrosine kinase receptor (Homo sapiens), Q9UM73 [C1156Y]; assay: Inhibition of […] human partial length ALK C1156Y mutant (I1088 to E1409 residues) expressed in mammalian expression system assessed as residual activity at 1 uM by Kinomescan method relative to control
[4] = target: Mitotic checkpoint serine/threonine-protein kinase BUB1 (Homo sapiens) (UniProt O43683); assay: Inhibition of wild-type human partial length BUB1 (Q724 to K1085 residues) expressed in mammalian expression system assessed as residual activity at 1 uM by Kinomescan method relative to control
[5] = target: Calcium/calmodulin-dependent protein kinase type 1 (Homo sapiens) (UniProt Q14012); assay: Inhibition of wild-type human full length CAMK1 (M1 to L370 residues) expressed in bacterial expression system assessed as residual activity at 1 uM by Kinomescan method relative to control
[6] = target: Death-associated protein kinase 2 (Homo sapiens) (UniProt Q9UIK4); assay: Inhibition of wild-type human full length DAPK2 (M1 to S370 residues) expressed in bacterial expression system assessed as residual activity at 1 uM by Kinomescan method relative to control
[7] = target: Serine/threonine-protein kinase 17B (Homo sapiens) (UniProt O94768); assay: Inhibition of wild-type human full length DRAK2 (M1 to C372 residues) expressed in bacterial expression system assessed as residual activity at 1 uM by Kinomescan method relative to control
[8] = target: Mitogen-activated protein kinase 7 (Homo sapiens) (UniProt Q13164); assay: Inhibition of wild-type human partial length ERK5 (M1 to A409 residues) expressed in bacterial expression system assessed as residual activity at 1 uM by Kinomescan method relative to control
[9] = target: Fibroblast growth factor receptor 4 (Homo sapiens) (UniProt P22455); assay: Inhibition of wild-type human partial length FGFR4 (G402 to E713 residues) expressed in bacterial expression system assessed as residual activity at 1 uM by Kinomescan method relative to control
[10] = target: Interleukin-1 receptor-associated kinase 1 (Homo sapiens) (UniProt P51617); assay: Inhibition of wild-type human partial length IRAK1 (R194 to S712 residues) expressed in mammalian expression system assessed as residual activity at 1 uM by Kinomescan method relative to control
[11] = target: Tyrosine-protein kinase ITK/TSK (Homo sapiens) (UniProt Q08881); assay: Inhibition of wild-type human partial length ITK (R335 to L620 residues) expressed in bacterial expression system assessed as residual activity at 1 uM by Kinomescan method relative to control
[12] = target: Tyrosine-protein kinase JAK1 (Homo sapiens) (UniProt P23458); assay: Inhibition of wild-type human partial length JAK1 JH2 pseudokinase domain (R537 to D855 residues) expressed in mammalian expression system assessed as residual activity at 1 uM by Kinomescan method relative to control
[13] = target: Serine/threonine-protein kinase NLK (Homo sapiens) (UniProt Q9UBE8); assay: Inhibition of wild-type human full length NLK (M13 to E527 residues) expressed in bacterial expression system assessed as residual activity at 1 uM by Kinomescan method relative to control
[14] = target: Phosphatidylinositol 4,5-bisphosphate 3-kinase catalytic subunit beta isoform (Homo sapiens) (UniProt P42338); assay: Inhibition of wild-type human partial length PIK3CB (P118 to S1070 residues) expressed in mammalian expression system assessed as residual activity at 1 uM by Kinomescan method relative to control
[15] = target: Phosphatidylinositol 4,5-bisphosphate 3-kinase catalytic subunit delta isoform (Homo sapiens) (UniProt O00329); assay: Inhibition of wild-type human partial length PIK3CD (R108 to Q1044 residues) expressed in mammalian expression system assessed as residual activity at 1 uM by Kinomescan method relative to control
[16] = target: Serine/threonine-protein kinase pim-2 (Homo sapiens) (UniProt Q9P1W9); assay: Inhibition of wild-type human partial length PIM2 (M1 to E291 residues) expressed in bacterial expression system assessed as residual activity at 1 uM by Kinomescan method relative to control
[17] = target: cAMP-dependent protein kinase catalytic subunit alpha (Homo sapiens) (UniProt P17612); assay: Inhibition of wild-type human partial length PKAC-alpha (G10 to F351 residues) expressed in bacterial expression system assessed as residual activity at 1 uM by Kinomescan method relative to control
[18] = target: Serine/threonine-protein kinase PLK1 (Homo sapiens) (UniProt P53350); assay: Inhibition of wild-type human partial length PLK1 (A33 to F325 residues) expressed in mammalian expression system assessed as residual activity at 1 uM by Kinomescan method relative to control
[19] = target: Serine/threonine-protein kinase PLK2 (Homo sapiens) (UniProt Q9NYY3); assay: Inhibition of wild-type human partial length PLK2 (H58 to F354 residues) expressed in mammalian expression system assessed as residual activity at 1 uM by Kinomescan method relative to control
[20] = target: cAMP-dependent protein kinase catalytic subunit PRKX (Homo sapiens) (UniProt P51817); assay: Inhibition of wild-type human partial length PRKX (M1 to F358 residues) expressed in bacterial expression system assessed as residual activity at 1 uM by Kinomescan method relative to control
[21] = target: Serine/threonine-protein kinase Sgk2 (Homo sapiens) (UniProt Q9HBY8); assay: Inhibition of wild-type human partial length SGK2 (L54 to C427 residues) expressed in mammalian expression system assessed as residual activity at 1 uM by Kinomescan method relative to control
[22] = target: Serine/threonine-protein kinase SIK1 (Homo sapiens) (UniProt P57059); assay: Inhibition of wild-type human partial length SIK (M1 to Y304 residues) expressed in bacterial expression system assessed as residual activity at 1 uM by Kinomescan method relative to control
[23] = target: Tyrosine-protein kinase receptor Tie-1 (Homo sapiens) (UniProt P35590); assay: Inhibition of wild-type human partial length TIE1 (T819 to A1138 residues) expressed in bacterial expression system assessed as residual activity at 1 uM by Kinomescan method relative to control
[24] = target: Serine/threonine-protein kinase VRK2 (Homo sapiens) (UniProt Q86Y07); assay: Inhibition of wild-type human partial length VRK2 (M1 to T336 residues) expressed in mammalian expression system assessed as residual activity at 1 uM by Kinomescan method relative to control
Chain of Serine/threonine-protein kinase VRK2 (Homo sapiens) (Q86Y07 whole entry, the tested form may be a part): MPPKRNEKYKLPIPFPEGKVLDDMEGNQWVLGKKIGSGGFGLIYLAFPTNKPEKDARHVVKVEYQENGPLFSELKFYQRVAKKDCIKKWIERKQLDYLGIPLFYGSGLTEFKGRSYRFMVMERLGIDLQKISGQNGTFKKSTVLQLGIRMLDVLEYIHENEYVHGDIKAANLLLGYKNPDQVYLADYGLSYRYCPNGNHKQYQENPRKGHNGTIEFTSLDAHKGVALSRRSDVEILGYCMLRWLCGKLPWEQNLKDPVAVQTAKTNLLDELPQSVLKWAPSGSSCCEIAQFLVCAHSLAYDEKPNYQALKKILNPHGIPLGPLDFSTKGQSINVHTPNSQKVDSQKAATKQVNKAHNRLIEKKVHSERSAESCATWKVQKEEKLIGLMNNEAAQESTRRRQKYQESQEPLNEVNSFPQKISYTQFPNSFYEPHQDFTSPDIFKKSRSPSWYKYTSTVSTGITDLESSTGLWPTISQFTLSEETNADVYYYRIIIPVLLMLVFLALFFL

Chain of Serine/threonine-protein kinase PLK2 (Homo sapiens) (Q9NYY3 whole entry, looked up, the tested form may be a part): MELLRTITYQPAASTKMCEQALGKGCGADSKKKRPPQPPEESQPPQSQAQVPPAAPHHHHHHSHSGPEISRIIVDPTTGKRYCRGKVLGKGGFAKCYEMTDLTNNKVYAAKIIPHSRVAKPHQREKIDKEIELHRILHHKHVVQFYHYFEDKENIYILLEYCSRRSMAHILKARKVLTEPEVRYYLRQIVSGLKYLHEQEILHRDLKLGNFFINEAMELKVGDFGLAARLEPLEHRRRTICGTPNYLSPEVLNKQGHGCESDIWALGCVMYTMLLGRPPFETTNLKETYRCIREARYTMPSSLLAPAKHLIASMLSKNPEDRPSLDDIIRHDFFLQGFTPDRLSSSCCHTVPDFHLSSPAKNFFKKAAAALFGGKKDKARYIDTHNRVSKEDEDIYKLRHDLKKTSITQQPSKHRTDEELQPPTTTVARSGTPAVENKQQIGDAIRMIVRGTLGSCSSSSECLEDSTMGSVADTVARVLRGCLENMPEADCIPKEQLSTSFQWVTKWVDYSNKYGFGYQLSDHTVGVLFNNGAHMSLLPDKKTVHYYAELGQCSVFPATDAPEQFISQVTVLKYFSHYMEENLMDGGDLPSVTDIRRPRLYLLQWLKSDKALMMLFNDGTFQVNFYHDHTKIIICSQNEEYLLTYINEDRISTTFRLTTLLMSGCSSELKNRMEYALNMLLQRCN
Chain of Serine/threonine-protein kinase PLK1 (Homo sapiens) (P53350 whole entry, the tested form may be a part): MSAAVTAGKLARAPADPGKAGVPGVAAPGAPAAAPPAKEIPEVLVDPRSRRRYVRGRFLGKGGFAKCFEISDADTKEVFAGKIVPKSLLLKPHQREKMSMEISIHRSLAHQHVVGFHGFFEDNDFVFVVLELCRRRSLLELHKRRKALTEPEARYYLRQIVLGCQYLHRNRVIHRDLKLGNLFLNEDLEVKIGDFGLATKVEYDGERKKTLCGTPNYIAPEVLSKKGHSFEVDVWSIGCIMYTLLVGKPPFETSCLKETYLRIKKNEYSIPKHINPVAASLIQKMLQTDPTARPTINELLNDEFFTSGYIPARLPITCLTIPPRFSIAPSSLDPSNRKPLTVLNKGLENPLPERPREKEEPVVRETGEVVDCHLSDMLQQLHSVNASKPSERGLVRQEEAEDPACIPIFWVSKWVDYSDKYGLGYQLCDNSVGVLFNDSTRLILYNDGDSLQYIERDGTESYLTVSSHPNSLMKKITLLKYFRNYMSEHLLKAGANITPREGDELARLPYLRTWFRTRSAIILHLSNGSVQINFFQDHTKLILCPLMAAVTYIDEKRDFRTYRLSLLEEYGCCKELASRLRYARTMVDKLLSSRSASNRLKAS
Chain of Serine/threonine-protein kinase pim-2 (Homo sapiens) (Q9P1W9 whole entry, looked up, the tested form may be a part): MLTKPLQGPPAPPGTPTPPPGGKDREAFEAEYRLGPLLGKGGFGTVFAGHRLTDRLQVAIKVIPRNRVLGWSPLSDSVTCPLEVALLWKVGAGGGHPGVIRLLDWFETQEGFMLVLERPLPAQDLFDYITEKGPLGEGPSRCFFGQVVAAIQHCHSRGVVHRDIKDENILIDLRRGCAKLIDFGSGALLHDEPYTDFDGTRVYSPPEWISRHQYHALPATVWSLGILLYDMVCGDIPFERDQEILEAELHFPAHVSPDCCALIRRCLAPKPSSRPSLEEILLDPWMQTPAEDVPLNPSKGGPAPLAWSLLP
Chain of ALK tyrosine kinase receptor (Homo sapiens), Q9UM73 [C1156Y] (Q9UM73 whole entry C1156Y, looked up, the tested form may be a part): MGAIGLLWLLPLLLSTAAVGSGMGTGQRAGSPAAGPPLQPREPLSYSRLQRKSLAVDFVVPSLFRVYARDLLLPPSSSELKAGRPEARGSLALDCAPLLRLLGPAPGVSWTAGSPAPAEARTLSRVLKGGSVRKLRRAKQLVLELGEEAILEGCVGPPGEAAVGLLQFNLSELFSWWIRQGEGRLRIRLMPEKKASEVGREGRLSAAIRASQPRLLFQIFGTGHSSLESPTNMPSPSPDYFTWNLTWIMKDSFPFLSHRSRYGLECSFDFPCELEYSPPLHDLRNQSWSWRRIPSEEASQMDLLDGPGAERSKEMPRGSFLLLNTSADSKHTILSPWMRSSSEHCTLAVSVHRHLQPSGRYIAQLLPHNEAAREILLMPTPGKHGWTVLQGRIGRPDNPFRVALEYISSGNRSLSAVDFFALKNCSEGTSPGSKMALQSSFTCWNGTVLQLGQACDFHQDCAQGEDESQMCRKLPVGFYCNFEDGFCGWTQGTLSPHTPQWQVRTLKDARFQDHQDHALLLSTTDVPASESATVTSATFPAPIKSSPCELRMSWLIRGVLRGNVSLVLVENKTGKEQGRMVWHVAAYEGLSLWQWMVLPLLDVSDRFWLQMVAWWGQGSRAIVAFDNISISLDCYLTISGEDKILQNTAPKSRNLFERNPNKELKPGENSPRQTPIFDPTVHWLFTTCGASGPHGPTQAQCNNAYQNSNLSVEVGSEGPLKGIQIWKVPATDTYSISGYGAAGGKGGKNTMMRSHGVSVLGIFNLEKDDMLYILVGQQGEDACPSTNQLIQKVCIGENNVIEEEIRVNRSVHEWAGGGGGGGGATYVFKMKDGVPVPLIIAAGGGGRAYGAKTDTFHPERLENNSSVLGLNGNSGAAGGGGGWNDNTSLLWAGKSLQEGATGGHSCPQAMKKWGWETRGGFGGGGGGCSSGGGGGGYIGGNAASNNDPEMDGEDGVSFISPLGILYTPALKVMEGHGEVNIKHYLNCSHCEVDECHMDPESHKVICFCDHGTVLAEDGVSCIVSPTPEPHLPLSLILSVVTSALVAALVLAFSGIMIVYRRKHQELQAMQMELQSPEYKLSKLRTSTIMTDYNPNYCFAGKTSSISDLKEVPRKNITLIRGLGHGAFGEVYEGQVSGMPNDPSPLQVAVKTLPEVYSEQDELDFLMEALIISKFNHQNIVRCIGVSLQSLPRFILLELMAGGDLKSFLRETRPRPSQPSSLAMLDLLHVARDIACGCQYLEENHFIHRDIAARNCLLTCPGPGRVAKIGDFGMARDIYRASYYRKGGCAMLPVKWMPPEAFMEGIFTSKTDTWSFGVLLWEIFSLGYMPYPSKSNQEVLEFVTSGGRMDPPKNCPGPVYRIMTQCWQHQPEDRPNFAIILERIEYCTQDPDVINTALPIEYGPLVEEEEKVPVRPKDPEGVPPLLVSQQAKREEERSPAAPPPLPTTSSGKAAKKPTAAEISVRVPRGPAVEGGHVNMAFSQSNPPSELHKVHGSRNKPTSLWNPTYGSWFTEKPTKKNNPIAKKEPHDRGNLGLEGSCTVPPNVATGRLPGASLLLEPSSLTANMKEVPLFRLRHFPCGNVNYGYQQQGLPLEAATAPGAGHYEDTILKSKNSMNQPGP
Chain of Tyrosine-protein kinase ITK/TSK (Homo sapiens) (Q08881 whole entry, the tested form may be a part): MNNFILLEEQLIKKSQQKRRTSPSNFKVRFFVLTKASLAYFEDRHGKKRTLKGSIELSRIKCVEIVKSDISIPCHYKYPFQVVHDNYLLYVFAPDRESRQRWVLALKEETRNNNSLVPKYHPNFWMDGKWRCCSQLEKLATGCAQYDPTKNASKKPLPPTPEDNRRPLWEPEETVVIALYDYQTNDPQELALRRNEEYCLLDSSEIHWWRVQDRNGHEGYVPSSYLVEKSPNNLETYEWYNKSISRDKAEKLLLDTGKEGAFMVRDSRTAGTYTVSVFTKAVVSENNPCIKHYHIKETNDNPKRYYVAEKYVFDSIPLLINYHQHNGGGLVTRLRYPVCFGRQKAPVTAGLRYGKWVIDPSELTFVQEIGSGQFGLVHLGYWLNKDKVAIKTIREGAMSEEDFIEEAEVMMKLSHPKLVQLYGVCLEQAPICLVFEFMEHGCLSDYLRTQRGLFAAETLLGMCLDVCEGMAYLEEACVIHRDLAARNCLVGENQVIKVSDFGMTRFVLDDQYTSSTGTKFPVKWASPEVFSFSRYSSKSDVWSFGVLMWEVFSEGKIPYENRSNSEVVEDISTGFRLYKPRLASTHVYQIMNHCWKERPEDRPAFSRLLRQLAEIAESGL
Chain of Serine/threonine-protein kinase 17B (Homo sapiens) (O94768 whole entry, the tested form may be a part): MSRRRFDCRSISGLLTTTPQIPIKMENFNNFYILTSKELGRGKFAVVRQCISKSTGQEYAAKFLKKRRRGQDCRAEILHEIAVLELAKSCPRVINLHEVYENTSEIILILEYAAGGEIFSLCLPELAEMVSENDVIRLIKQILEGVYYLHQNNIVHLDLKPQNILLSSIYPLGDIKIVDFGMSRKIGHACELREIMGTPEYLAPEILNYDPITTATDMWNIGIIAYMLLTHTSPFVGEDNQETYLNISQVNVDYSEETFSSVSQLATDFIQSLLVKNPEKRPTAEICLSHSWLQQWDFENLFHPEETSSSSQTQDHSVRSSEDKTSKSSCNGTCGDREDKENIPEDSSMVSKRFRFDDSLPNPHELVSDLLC

C=CC(=O)Nc1cc(Nc2cc(-c3cccc(NC(=O)c4ccc(C(C)(C)C)cc4)c3C)cn(C)c2=O)ccc1C(=O)N1CCOCC1
GI50 (U-937): 4.8 µM | Activity (PBMC): Non-Toxic | Activity (Pfeiffer): Dose-dependent effect | AUC(0-t) [1]: 22 ng·h/mL | Activity [2]: 79% | Activity [3]: 94% | Activity [4]: 100% | Activity [5]: 92% | Activity [6]: 99% | Activity [7]: 94% | Activity [8]: 99% | Activity [9]: 84% | Activity [10]: 100% | Activity [11]: 100% | Activity [12]: 86% | Activity [13]: 63% | Activity [14]: 100% | Activity [15]: 100% | Activity [16]: 90% | Activity [17]: 95% | Activity [18]: 100% | Activity [19]: 100% | Activity [20]: 98% | Activity [21]: 93% | Activity [22]: 93% | Activity [23]: 87% | Activity [24]: 100%
